Measured values reported in patent US20210212960A1, “IDENTIFICATION OF SEIZURE SUSCEPTIBILITY REGION IN WOLF-HIRSCHHORN SYNDROME AND TREATMENT THEREOF” (Lineagen, Inc., priority 2016, published 2021).

Legend:
[1] = system: seizures in individuals with WHS; test: Parent-reported responses to seizure medications, questionnaire of the 48-individual WHS cohort (Example 1); assay type: in vivo, human; conditions: n users per drug; for Negative reports: number of unprompted parent reports of a negative reaction causing stop of the drug or no control over seizures; for Positive reports: number of unprompted parent reports of significant and observable increase in control over seizures
Text: This questionnaire captures the health, medical profile, developmental history, and treatment responses of individuals with WHS. For the present study, the focus was on the presence or absence of seizures, age of seizure onset, types of seizures, antiepileptic drugs (AEDs) used and responses to these AEDs, as well as responses to the ketogenic diet. For cases with incomplete, contradictory or unclear parental responses, medical records of patients were consulted. When available medical records were also incomplete, ‘no answer’ is indicated in the relevant text and tables.
AED responses were scored as negative if the patients' parents reported a negative reaction (allergic reaction or other) without prompting that caused them to stop using that drug, or if the drug conferred no control over seizures.

[2] = system: seizures in individuals with WHS; test: Online survey of 4p-Support Group parents: seizure control outcome by seizure treatment in WHS (Example 5); assay type: in vivo, human; conditions: for Seizure control outcome: Complete control, Percent / Seizure control outcome: Increased number of seizure, Percent / Seizure control outcome: Less than 50% reduction, Percent / Seizure control outcome: No change, Percent / Seizure control outcome: ≥50% reduction, Percent: percent of users of the medication
Text: This study and all recruitment materials were approved by the University of Utah IRB (IRB_00064655). The cohort for this study was recruited from the 4p-Support Group, which is comprised of parents and caretakers of individuals with WHS. Inclusion criteria were: 1) a genetic diagnosis of WHS and 2) at least one seizure treatment had been used for seizure control. An invitation to participate in the survey was sent out to all members of the 4p-Support Group email list (representing approximately 300 individuals with WHS) and posted on the 4p-Support Group's Facebook page. Individuals self-identifying as a parent or caretaker of an individual with WHS and a history of seizures, who had tried at least one seizure treatment, were invited to participate. The invitation described the purpose of the study and provided a link to the online survey.
The survey was developed by expanding the seizure history and treatment sections of a previous survey used by Ho et al (J Med Genet 2016; 53:256-263). The online survey was hosted by the HIPAA-compliant platform, RedCAP, and consisted of four sections. The first section collected general demographic information about the individual with WHS. Two additional questions were added to confirm whether the individual had genetic testing to confirm the diagnosis of WHS and ascertain which type of genetic testing had been completed. The second section focused on seizure history. This included age of onset, types of seizures, seizure duration, status epilepticus (seizures lasting longer than 30 minutes), and whether the individual still experiences seizures or is seizure free. The third section asked about antiepileptic drugs (AEDs) used for seizure treatment. Participants were asked to list each AED or combination of AEDs tried in chronological order. For each AED or combination of AEDs participants were asked about duration, effect on number of seizures, side effects, and reasons for discontinuing that AED or combination of AEDs. There were also questions about whether the individual was on a ketogenic diet or using cannabis oil during that time. Space for additional comments about each AED or combination of AEDs tried was also provided. The fourth section contained questions about use of ketogenic diet or cannabis oil while in the absence of AEDs. Again participants were asked about duration, effect on number of seizures, side effects, and reasons for discontinuing. In the case of cannabis oil use, participants were asked to specify whether pure cannabis oil or a THC mixture was used.
The levels of seizure control outcome were grouped into five categories: increased number of seizure, no change, less than 50% reduction, >50% reduction, and complete control.
When a medication was used multiple times (or when looking at combined medication), the seizure control outcome was scored as the best response among all of them. The most frequently used 5 medications reported in this cohort are phenobarbital, diazepam, lamotrigine, valproic acid (sodium valproate) and levetiracetam. We used frequency and percentages to describe the seizure control outcome of these five medications. The Kruskal-Wallis test was performed to evaluate the level of seizure control achieved with these five medications. The Wilcoxon rank sum test was performed to evaluate the hypothesis of the different seizure control outcomes between carbamazepine and levetiracetam. Comparison of the seizure control outcome based on whether levetiracetam was used first or later, was performed by the Cochran Armitage test. Statistical analysis was conducted using SAS 9.4 (SAS Inc., N.C.).

[3] = system: seizures in Dravet patients; conditions: cited from earlier work; for effectiveness of seizure treatment: individuals with Dravet syndrome
[4] = system: seizures in patients with 15q Duplication syndrome; conditions: cited from earlier work
[5] = system: seizures in individuals with WHS and with Dravet syndrome; conditions: individuals with WHS as well as individuals with Dravet syndrome; cited from earlier work
[6] = system: seizures of this subtype of CDG; conditions: subtype of CDG caused by genes functioning like PIGG; cited from earlier work
[7] = levetiracetam used as first AED (n = 31)
[8] = levetiracetam used later in treatment (n = 27)

Compound	Negative reports [1]	Positive reports [1]	Seizure control outcome: Complete control, Percent [2] [%]	Seizure control outcome: Less than 50% reduction, Percent [2] [%]	Seizure control outcome: No change, Percent [2] [%]	Seizure control outcome: ≥50% reduction, Percent [2] [%]	response to seizure treatment [4]	also measured
CCC1(c2ccccc2)C(=O)NC(=O)NC1=O [Phenobarbital]	5	0	61.11	11.11	13.89	11.11		Seizure control outcome: Increased number of seizure, Percent [2]: 2.78%
CC1(C)O[C@@H]2[C@@H](CO[C@@]3(COS(N)(=O)=O)OC(C)(C)O[C@@H]23)O1 [Topiramate]	4	1						
CCCC(CCC)C(=O)O [Valproic acid]	2	2	50	9.38	9.38	31.25	generally responded well	effectiveness of seizure treatment [3]: most effective
CC[C@@H](C(N)=O)N1CCCC1=O [Levetiracetam]	1	4	56.9	8.62	5.17	29.31	generally responded well	Complete control, First use, % [2, 7]: 61.29%; Less than 50% reduction, First use, % [2, 7]: 3.23%; No change, First use, % [2, 7]: 3.23%; ≥50% reduction, First use, % [2, 7]: 32.26%; Complete control, Later use, % [2, 8]: 51.85%; Less than 50% reduction, Later use, % [2, 8]: 14.81%; No change, Later use, % [2, 8]: 7.41%; ≥50% reduction, Later use, % [2, 8]: 25.93%
CN1C(=O)CN=C(c2ccccc2)c2cc(Cl)ccc21 [Diazepam]			31.25	6.25	25	37.5		
Br [bromide]								effectiveness of seizure treatment [3]: most effective
NC(=O)N1c2ccccc2C=Cc2ccccc21 [Carbamazepine]			18.18	18.18	27.27	9.09	generally responded well	Seizure control outcome: Increased number of seizure, Percent [2]: 27.27%; aggravates seizures, share of Dravet patients ([3]; Dravet syndrome): 20%; no benefit, share of Dravet patients ([3]; Dravet syndrome): 78%; effect on seizures [5]: exacerbate seizures
Nc1nnc(-c2cccc(Cl)c2Cl)c(N)n1 [Lamotrigine]			31.25	6.25	12.5	50		effect on seizures [5]: exacerbate seizures
Cc1ncc(CO)c(CO)c1O.Cl [Vitamin B6]								efficacy in treating seizures [6]: efficacious
